Assay in all cases: Cell proliferation, crystal violet method
Common to all, as to assay type: cell-based

Assay [1] concerns human melanoma cells (A375). To be noted: for IC50: Homo sapiens, A-375, crystal violet, spectrophotometer, read-out: IC50 anti-proliferative effect, Melanoma (A375). The procedure:
(§1) The compound according to the invention, and in particular the synthetic quercetin derivatives described and illustrated herein were investigated in vitro by using human tumour cells and assessing their impact on the tumour proliferative capacity, with regard to the tumours described above. In particular, the following human tumour cell lines were assessed experimentally: 1) HCT116, colon adenocarcinoma cells; 2) H1299, lung adenocarcinoma cells; 3) A375, melanoma cells, and 4) A431, squamous skin cell carcinoma; 5) 786-0, renal carcinoma cells; 6) PC3, prostate carcinoma cells; 7) BT549, mammary carcinoma cells; 8) CAL27, tongue carcinoma cells (belonging to the head-and-neck carcinomas); 9) HepG2, hepatocellular carcinoma cells; 10) PANC-1, pancreas carcinoma cells; 11) T24, bladder carcinoma cells; 12) OVCAR-3, ovarian carcinoma cells. In addition, a normal human cell line, WS1 (skin fibroblasts) was also treated with the novel synthetic compounds.
(§2) Cell proliferation was quantified by the crystal violet method with a spectrophotometer. In short, after acquiring serial images (0, 24 and 48 hrs) with the EVOS XL Cell Imaging System microscope (Thermo Fisher Scientific), the cells imaged at 48 hrs were fixed with paraformaldehyde (4%) and stained with Crystal Violet (1%). Then, the specific absorbance (λ=590 nm) at 48 hrs was measured with a spectrophotometer (Infinite®200 PRO, Tecan). Data analysis was carried out by using ad-hoc Excel files for graphical representation and statistical processing (t-test). Moreover, the results obtained with Crystal Violet were confirmed by using another cell proliferation assessment method based on the real time cellular analyzer XCELLigence RTCA DP (ACEA Biosciences, Inc.). This tool allows cell growth to be monitored from electrical impedance-derived quantitative values (the so-called Cell Index) measured by tiny electrodes located at the base of the culture wells. Proliferation is monitored for several days (5-7) by setting a Cell Index per minute measure on the instrument. The data are analysed by processing various parameters calculated by the dedicated software, such as the cell duplication time, the slope and the Max Cell Index.
(§3) Cell proliferation was quantitated spectrophotometrically by the crystal violet method.

Assay [2] relates to human colon carcinoma cells (HCT116). As to conditions: for IC50: Homo sapiens, HCT-116, crystal violet, spectrophotometer, read-out: IC50 anti-proliferative effect, CRC (HCT116). As to the method: as §1, §2, §3
The test system of assay [3] is human ovarian carcinoma cells (OVCAR-3). As to conditions: for OVCAR-3 cell growth vs vehicle control: 60 μM, FIG. 11a, 11b; for IC50: Homo sapiens, OVCAR-3, crystal violet, spectrophotometer, read-out: IC50 anti-proliferative effect, OCC - (OVCAR). As to the method: as §1, §2, §3

This is an account of results in patent US12059400B2, “Medical compound” (VERA SALUS RICERCA S.R.L., priority 2017, dated 2024).

As a reminder, the IC50 is the concentration that inhibits the measured activity by half.

Consider `O=C(CCCOc1c(-c2ccc(O)c(O)c2)oc2cc(O)cc(O)c2c1=O)N[C@H]1CCCC[C@H]1NC(=O)CCCOc1c(-c2ccc(O)c(O)c2)oc2cc(O)cc(O)c2c1=O` [Compound 15a], for which, in assay [1] (10 μM and 30 μM, FIG. 14), the “A375 cell growth vs vehicle control” value is listed as “significantly inhibited”. The IC50 in assay [1] was 23 µM; in assay [2], 13.3 µM. Further, the “HCT116 cell growth vs vehicle control” value in assay [2] (10 μM and 30 μM, FIG. 15) is given as “significantly inhibited”.

Take `O=C(CCCOc1c(-c2ccc(O)c(O)c2)oc2cc(O)cc(O)c2c1=O)NCCCOCCOCCOCCCNC(=O)CCCOc1c(-c2ccc(O)c(O)c2)oc2cc(O)cc(O)c2c1=O` [Compound 15b]: the “A375 cell growth vs vehicle control” value in assay [1] (10 μM and 30 μM, FIG. 14) is recorded as “significantly inhibited”. The half-maximal inhibitory concentration (IC50) amounted to 24.6 µM in assay [1] and 18.6 µM in assay [2]. Also, the “HCT116 cell growth vs vehicle control” value in assay [2] (10 μM and 30 μM, FIG. 15) is recorded as “significantly inhibited”.

`O=C(CCCOc1c(-c2ccc(O)c(O)c2)oc2cc(O)cc(O)c2c1=O)NCc1ccc(CNC(=O)CCCOc2c(-c3ccc(O)c(O)c3)oc3cc(O)cc(O)c3c2=O)cc1` [Compound 15c]: the “A375 cell growth vs vehicle control” value in assay [1] (10 μM and 30 μM, FIG. 14) was “significantly inhibited”. For the same molecule, the IC50 was found to be 15.5 µM in assay [1] and 15.8 µM in assay [2]. For the same molecule, the “HCT116 cell growth vs vehicle control” value in assay [2] (10 μM and 30 μM, FIG. 15) is given as “significantly inhibited”.

With `O=C(CCCOc1c(-c2ccc(O)c(O)c2)oc2cc(O)cc(O)c2c1=O)NCC1CCC(CNC(=O)CCCOc2c(-c3ccc(O)c(O)c3)oc3cc(O)cc(O)c3c2=O)CC1` (centres unmarked) [Compound 15d], the “A375 cell growth vs vehicle control” value in assay [1] (10 μM and 30 μM, FIG. 14) is “significantly inhibited”. Moreover, the results for the IC50 in assay [1] and in assay [2] were 7.16 µM and 12.1 µM, respectively. The “HCT116 cell growth vs vehicle control” value in assay [2] (10 μM and 30 μM, FIG. 15) is recorded as “significantly inhibited”.

As for `O=C(CCCC(=O)NCCOCCOc1c(-c2ccc(O)c(O)c2)oc2cc(O)cc(O)c2c1=O)NCCOCCOc1c(-c2ccc(O)c(O)c2)oc2cc(O)cc(O)c2c1=O` [Compound 19a], in assay [2], the half-maximal inhibitory concentration (IC50) is greater than 1000 µM.

Take `O=C(NCCOCCOc1c(-c2ccc(O)c(O)c2)oc2cc(O)cc(O)c2c1=O)c1ccc(Oc2ccc(C(=O)NCCOCCOc3c(-c4ccc(O)c(O)c4)oc4cc(O)cc(O)c4c3=O)cc2)cc1` [Compound 19c]: in assay [3], the “OVCAR-3 cell growth vs vehicle control” value is listed as “significantly inhibit”. The figures for the IC50 in assay [3], in assay [1] and in assay [2] were 7.44 µM, 3.95 µM and 1.28 µM, respectively. For the same molecule, the “A375 cell growth vs vehicle control” value in assay [1] (10 μM and 30 μM, FIG. 14) was “significantly inhibited”. For the same molecule, the “HCT116 cell growth vs vehicle control” value in assay [2] (10 μM and 30 μM, FIG. 15) is on record as “significantly inhibited”.

Turning to `O=C(NCCOCCOc1c(-c2ccc(O)c(O)c2)oc2cc(O)cc(O)c2c1=O)c1ccc(OCCCCCCOc2ccc(C(=O)NCCOCCOc3c(-c4ccc(O)c(O)c4)oc4cc(O)cc(O)c4c3=O)cc2)cc1` [Compound 19d], the “OVCAR-3 cell growth vs vehicle control” value in assay [3] is recorded as “significantly inhibit”. The figures for the IC50 in assay [3], in assay [1] and in assay [2] were 5.01 µM, 1.62 µM and 0.74 µM, respectively. Also, the “A375 cell growth vs vehicle control” value in assay [1] (10 μM and 30 μM, FIG. 14) is recorded as “significantly inhibited”. Besides, the “HCT116 cell growth vs vehicle control” value in assay [2] (10 μM and 30 μM, FIG. 15) is recorded as “significantly inhibited”.

In the case of `O=C(NCCOCCOc1c(-c2ccc(O)c(O)c2)oc2cc(O)cc(O)c2c1=O)c1cc(C(=O)NCCOCCOc2c(-c3ccc(O)c(O)c3)oc3cc(O)cc(O)c3c2=O)cc(C(=O)NCCOCCOc2c(-c3ccc(O)c(O)c3)oc3cc(O)cc(O)c3c2=O)c1` [Compound 22a], the “A375 cell growth vs vehicle control” value in assay [1] (30 μM and 100 μM, FIG. 16) is “inhibit”. Besides, the IC50 in assay [1] amounted to 136 µM; in assay [2], 49.9 µM. The “HCT116 cell growth vs vehicle control” value in assay [2] (30 μM and 100 μM, FIG. 16) is on record as “inhibit”.

Regarding `O=C(NCCOCCOc1c(-c2ccc(O)c(O)c2)oc2cc(O)cc(O)c2c1=O)C1CC(C(=O)NCCOCCOc2c(-c3ccc(O)c(O)c3)oc3cc(O)cc(O)c3c2=O)CC(C(=O)NCCOCCOc2c(-c3ccc(O)c(O)c3)oc3cc(O)cc(O)c3c2=O)C1` (centres unmarked) [Compound 22b], the IC50 is greater than 1000 µM in assay [1] and 407 µM in assay [2].

For the molecule `O=C(NCCOCCOc1c(-c2ccc(O)c(O)c2)oc2cc(O)cc(O)c2c1=O)c1cc(C(=O)NCCOCCOc2c(-c3ccc(O)c(O)c3)oc3cc(O)cc(O)c3c2=O)cc(-c2cc(C(=O)NCCOCCOc3c(-c4ccc(O)c(O)c4)oc4cc(O)cc(O)c4c3=O)cc(C(=O)NCCOCCOc3c(-c4ccc(O)c(O)c4)oc4cc(O)cc(O)c4c3=O)c2)c1` [Compound 25a], the IC50 was greater than 1000 µM in assay [1] and 304 µM in assay [2].

With `O=c1c(OCCOCCO)c(-c2ccc(O)c(O)c2)oc2cc(O)cc(O)c12` [Compound 26], the results for the IC50 in assay [1] and in assay [2] were 52.3 µM and 81.2 µM, respectively. Also, the “proliferation of melanoma cells (A375) vs vehicle control” value in assay [1] (concentration not given, FIG. 12 for Compound 26) is listed as “significantly inhibits”. Further, the “HCT116 cell growth vs vehicle control” value in assay [2] (100 μM, FIG. 3a, 3b, 13a, 13b) is “significantly inhibits”.

With `NCCOCCOc1c(-c2ccc(O)c(O)c2)oc2cc(O)cc(O)c2c1=O` [Compound 27], in assay [2] (100 μM, FIG. 3a, 3b, 13a, 13b), the “HCT116 cell growth vs vehicle control” value is reported as “greater anti-proliferative effects”. Further, the concentration for half-maximal inhibition (IC50) in assay [2] was 378 µM.

As to `CCCCCCCCCCCCCCCC(=O)NCCOCCOc1c(-c2ccc(O)c(O)c2)oc2cc(O)cc(O)c2c1=O` [Compound 29a], the “A375 cell growth vs vehicle control” value in assay [1] (10 μM and 30 μM, FIG. 14) is on record as “significantly inhibited”. The IC50 in assay [1] is 5.21 µM; in assay [2] it was 15.7 µM. Further, the “HCT116 cell growth vs vehicle control” value in assay [2] (10 μM and 30 μM, FIG. 15) is on record as “significantly inhibited”.

With `CCCCCCCCCCCCCCCCCCCCCC(=O)NCCOCCOc1c(-c2ccc(O)c(O)c2)oc2cc(O)cc(O)c2c1=O` [Compound 29b], the IC50 in assay [1] and in assay [2] was greater than 1000 µM throughout.

With `CCCCCCCC/C=C\CCCCCCCC(=O)NCCOCCOc1c(-c2ccc(O)c(O)c2)oc2cc(O)cc(O)c2c1=O` [Compound 29c], the “A375 cell growth vs vehicle control” value in assay [1] (10 μM and 30 μM, FIG. 14) is on record as “significantly inhibited”. In addition, the IC50 came out at 7.03 µM in assay [1] and 3.64 µM in assay [2]. In addition, the “HCT116 cell growth vs vehicle control” value in assay [2] (10 μM and 30 μM, FIG. 15) was “significantly inhibited”.

As to `CCCCC/C=C\C/C=C\CCCCCCCC(=O)NCCOCCOc1c(-c2ccc(O)c(O)c2)oc2cc(O)cc(O)c2c1=O` [Compound 29d], the “A375 cell growth vs vehicle control” value in assay [1] (10 μM and 30 μM, FIG. 14) was “significantly inhibited”. Further, the IC50 in assay [1] was found to be 7.73 µM; in assay [2], 2.89 µM. The “HCT116 cell growth vs vehicle control” value in assay [2] (10 μM and 30 μM, FIG. 15) is listed as “significantly inhibited”.

In the case of `CCCCC/C=C\C/C=C\C/C=C\C/C=C\CCCC(=O)NCCOCCOc1c(-c2ccc(O)c(O)c2)oc2cc(O)cc(O)c2c1=O` [Compound 29e], the “OVCAR-3 cell growth vs vehicle control” value in assay [3] is listed as “significantly inhibit”. The figures for the half-maximal inhibitory concentration (IC50) in assay [3], in assay [1] and in assay [2] were 16.1 µM, 5.89 µM and 4.36 µM, respectively. Also, in assay [1] (10 μM and 30 μM, FIG. 14), the “A375 cell growth vs vehicle control” value is given as “significantly inhibited”. Moreover, in assay [2] (10 μM and 30 μM, FIG. 15), the “HCT116 cell growth vs vehicle control” value is recorded as “significantly inhibited”.

Turning to `CC/C=C\C/C=C\C/C=C\C/C=C\C/C=C\C/C=C\CCC(=O)NCCOCCOc1c(-c2ccc(O)c(O)c2)oc2cc(O)cc(O)c2c1=O` [Compound 29f], in assay [3], the “OVCAR-3 cell growth vs vehicle control” value is on record as “significantly inhibit”. The IC50 was 11.8 µM in assay [3], 5.17 µM in assay [1] and 3.08 µM in assay [2]. Moreover, the “A375 cell growth vs vehicle control” value in assay [1] (10 μM and 30 μM, FIG. 14) is “significantly inhibited”. Further, in assay [2] (10 μM and 30 μM, FIG. 15), the “HCT116 cell growth vs vehicle control” value is on record as “significantly inhibited”.

Take `COc1ccc(-c2ccc(C(=O)NCCOCCOc3c(-c4ccc(O)c(O)c4)oc4cc(O)cc(O)c4c3=O)cc2)cc1` [Compound 29g]: the “A375 cell growth vs vehicle control” value in assay [1] (10 μM and 30 μM, FIG. 14) is “significantly inhibited”. Also, the IC50 in assay [1] was determined as 7.84 µM; in assay [2] it was 5.93 µM. For the same molecule, the “HCT116 cell growth vs vehicle control” value in assay [2] (10 μM and 30 μM, FIG. 15) is reported as “significantly inhibited”.

For the molecule `CCCCCCCCCCCCCCCC(=O)NCCc1ccc(OCCCC(=O)NCCOCCOc2c(-c3ccc(O)c(O)c3)oc3cc(O)cc(O)c3c2=O)c(OCCCC(=O)NCCOCCOc2c(-c3ccc(O)c(O)c3)oc3cc(O)cc(O)c3c2=O)c1` [Compound 36], the “A375 cell growth vs vehicle control” value in assay [1] (30 μM and 100 μM, FIG. 16) is “inhibit”. Also, the results for the IC50 in assay [1] and in assay [2] were 89.8 µM and 112 µM, respectively. In addition, the “HCT116 cell growth vs vehicle control” value in assay [2] (30 μM and 100 μM, FIG. 16) was “inhibit”.
